In article PMC11420065 (Molecular Psychiatry, 2024):

Legend:
human 5-HT2AR [1] = target: T1, human 5-HT2AR (Homo sapiens, UniProt P28223); experiment: EMTA ebBRET biosensor, agonist mode, β-arrestin recruitment; conditions: baseline vs maximal response, words
Experimental: (§1) For recruitment of the β-arrestins, cells were transfected with the receptor, β-arrestin1-RlucII or β-arrestin2-RlucII, GRK2 and rGFP-CAAX.
(§2) For in vitro experiments, curves fitting was conducted using GraphPad Prism 9 (version 9.0.0). Concentration response curves were obtained using a three-parameter logistic nonlinear regression model and the results are expressed as mean ± SEM of at least three independent experiments. […] Ligand-promoted BRET (ΔBRET) was determined by subtracting the BRET ratio of the vehicle condition from the BRET ratio of the ligand-treated conditions.

[2] = test system: D-myo-inositol 1 monophosphate (IP1); experiment: IP1 levels in frontal cortex of treated mice (IP-One HTRF); conditions: 1 h
Experimental: C57BL/6 wild-type males, sourced from JAX farms, 11 weeks of age at the time of experiment, were housed in groups of up to five littermates with food and water ad libitum in a vivarium with a 12 h light/dark cycle at 23 °C. Animals were allowed to get accustomed to the vivarium at least 1 week prior to the experiment. […] All efforts were made to minimize animal suffering and the number of animals used.
Briefly, frontal cortices were harvested and homogenized in a 10 µL per 1 mg of tissue solution consisting of 10% IP-One Gq Kit Lysis and Detection Buffer in Stimulation Buffer. The clarified homogenates (17,000 × g for 15 min) were plated in duplicate by sequential addition of 2 µL to a 18 µL mix of detection reagents in Lysis and Detection Buffer.
The mice used in the studies came from the same colony and were split randomly between the experimental groups. The investigators were blinded to group allocation during compounds administration to mice. Data are presented as mean ± SEM of 5 mice for each treated group.
Data are normalized in fold of IP1 production in vehicle-treated mice (n = 5 animals per treatment condition; one-way ANOVA followed by Dunnett’s post hoc: compared to vehicle at 1h: *p < 0.1 and **p < 0.01 compared to vehicle).

human 5-HT2AR [3] = target: T1, human 5-HT2AR; experiment: EMTA ebBRET biosensor, agonist mode, Gαi/o/z family (Rap1GAP-RlucII/rGFP-CAAX); conditions: for Emax (%) ± SEM: normalized as % response of 5-HT, NA: no activity
Experimental: as §1, §2

human 5-HT2AR [4] = target: T1, human 5-HT2AR; experiment: EMTA ebBRET biosensor, agonist mode, Gαq family (p63-RlucII/rGFP-CAAX); conditions: normalized as % response of 5-HT, NA: no activity
Experimental: as §1, §2

human 5-HT2AR [5] = target: T1, human 5-HT2AR
Experimental: as §1, §2

T1 sequence (P28223 whole entry): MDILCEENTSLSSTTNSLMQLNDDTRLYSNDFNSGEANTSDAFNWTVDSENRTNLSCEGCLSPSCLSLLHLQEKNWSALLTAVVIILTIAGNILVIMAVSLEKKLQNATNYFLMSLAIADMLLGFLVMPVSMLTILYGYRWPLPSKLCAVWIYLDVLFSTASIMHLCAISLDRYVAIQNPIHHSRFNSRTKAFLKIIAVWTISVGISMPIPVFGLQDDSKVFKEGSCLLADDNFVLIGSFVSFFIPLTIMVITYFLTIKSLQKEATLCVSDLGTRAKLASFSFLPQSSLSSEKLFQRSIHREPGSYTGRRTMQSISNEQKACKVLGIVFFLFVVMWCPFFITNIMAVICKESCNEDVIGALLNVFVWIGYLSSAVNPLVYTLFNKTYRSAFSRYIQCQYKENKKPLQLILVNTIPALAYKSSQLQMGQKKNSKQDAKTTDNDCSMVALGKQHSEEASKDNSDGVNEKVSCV

Emax (%) ± SEM (human 5-HT2AR [4]; Gα11) [%] | Emax (%) ± SEM (human 5-HT2AR [4]; Gα14) [%] | Emax (%) ± SEM (human 5-HT2AR [4]; Gα15) [%] | Emax (%) ± SEM (human 5-HT2AR [4]; Gαq) [%] | % inhibition ± SEM (human 5-HT2AR [5]) [%] | Emax (%) ± SEM (human 5-HT2AR [3]; Gαi1) [%] | Emax (%) ± SEM (human 5-HT2AR [3]; Gαi2) [%] | Emax (%) ± SEM (human 5-HT2AR [3]; Gαi3) [%] | Emax (%) ± SEM (human 5-HT2AR [3]; GαoA) [%] | Emax (%) ± SEM (human 5-HT2AR [3]; GαoB) [%] | Emax (%) ± SEM (human 5-HT2AR [3]; Gαz) [%] | SMILES | recruitment of β-arrestin1 (human 5-HT2AR [1]) | increase in IP1 levels compared to the vehicle condition ([2]; 2 mg/Kg i.p.) [%] | activation at Gαi1 and Gαz (human 5-HT2AR [3]) | activation at the Gαi/o/z family (human 5-HT2AR [3]; agonist mode, baseline vs maximal response, words) | reduction in IP1 ([2]; 3 mg/Kg i.p., vs vehicle) [%]
– | – | – | – | – | – | – | – | – | – | – | O=C1CCc2ccc(OCCCCN3CCN(c4cccc(Cl)c4Cl)CC3)cc2N1 [Aripiprazole, aripiprazole] | very weak yet statistically significant recruitment | 10.5 ± 1.6 | very weak yet statistically significant activation | – | –
70.72 ± 4.97 | 68.10 ± 3.05 | 13.93 ± 0.53 | 67.99 ± 4.29 | > 50 | 12.72 ± 3.42 | 11.72 ± 2.50 | 16.05 ± 2.57 | 11.59 ± 2.44 | 4.32 ± 2.16 | 9.02 ± 0.88 | CN(C)C(=O)N[C@H]1CC[C@H](CCN2CCN(c3cccc(Cl)c3Cl)CC2)CC1 [Cariprazine, cariprazine] | did not | – | – | did not show statistically significant activation | –
– | – | – | – | – | – | – | – | – | – | – | Cc1nc2n(c(=O)c1CCN1CCC(c3noc4cc(F)ccc34)CC1)CCCC2 [Risperidone, risperidone] | – | – | – | – | 9.2 ± 1.2
